Patent publication US20160235102A1, “SWEETENER COMPOSITION, SWEETENER PRODUCTS, AND METHODS OF SWEETENING” (ALMENDRA AMERICAS, LLC, priority 2013, published 2016)

System: trained expert panelists
Assay: Sensory formulation study ballot: taste attributes rated on 0-15 scales by trained expert panelists
Assay type: in vivo, human
Conditions: 0-15 scale, rating defined for panel calibration
Text: Tongue numbing can also manifest itself as “tongue tingling”. These non-sugar-like characteristics appear inter-related in the sense that formulation as well as temperature changes affect the perception of several of them. Another taste characteristic of steviol glycosides, particularly those with relatively low levels of REB A, is soapiness, a characteristic that results from the surfactant portion of the molecule. To quantify all of these sensory effects by existing methods would require an expert sensory panel and at least 4 different sensory tests (i.e., C/R Function Determination, Flavor Profile Analysis, Temporal Profile Analysis and Adaptation Profile Analysis). However, to address a need for rapid screening of HP sweetener formulations, Prakash et al., described a scaling technique to quantify all of these sensory percepts in a single test (reference shown below under the table). An improvement of this methodology is described below.
Prior to the evaluation of test samples, all panelists must first calibrate themselves on Sucrose and Reference Samples (e.g., REB A) to ensure that they are able to appropriately scale taste attributes of interest. These Reference Samples are to be available in ample quantities for all experimental sessions. The Sucrose Reference is 10.0% sucrose acidified with 0.1% citric acid. For illustration purposes, an example of a Reference Sample can be a REB A Reference Sample that has 500 PPM REB A in the same system for general formula optimization studies.
Take a ca. 15 mL sample of the Sucrose Reference into the mouth swishing it around vigorously and note all attributes of the sensory experience. After ca. 10 sec, expectorate the sample and immediately rinse vigorously with ca. 15 mL of water, expectorating the rinse water. Over the next 2 minutes, while minimizing tongue movement in the mouth, pay attention to any rebound or intensification in perceived sweetness, bitterness, or numbing/tingling sensation. The intensity of the attribute perceived at 2 minutes is an estimate of its lingering tendency. Upon completion of calibration with the Sucrose Reference, calibration with the REB A Reference is carried out in the same way. The attribute ratings for the Sucrose and REB A References, all on 0-15 scales, are defined as follows: […]
After completion of reference sample calibrations, as well as in follow up of all sample tests, rinse the mouth vigorously with ca. 15 mL portions of the Sucrose Reference solution and two ca. 15 mL portions of water in effort to get the sensory system back to baseline.
After calibration with the Sucrose Reference and REB A Reference, evaluate all experimental samples by the same protocol, always using the Sucrose Reference and water rinse procedure and ensuring adequate time for the sensory system to return to normal before proceeding with subsequent samples
Taste procedure: the beverages were evaluated in triplicate using the sensory methodology described herein by four trained expert panelists and mean values were used for data analysis.

[1] = 2 minutes after expectoration and rinse, 10.0% sucrose or 500 PPM REB A in 0.1% citric acid
[2] = Sucrose Reference 10.0% sucrose, REB A Reference 500 PPM, both in 0.1% citric acid

## C=C1C[C@@]23CC[C@H]4[C@@](C)(CCC[C@@]4(C)C(=O)O[C@@H]4O[C@H](CO)[C@@H](O)[C@H](O)[C@H]4O)[C@@H]2CC[C@]1(O[C@@H]1O[C@H](CO)[C@@H](O)[C@H](O[C@@H]2O[C@H](CO)[C@@H](O)[C@H](O)[C@H]2O)[C@H]1O[C@@H]1O[C@H](CO)[C@@H](O)[C@H](O)[C@H]1O)C3 [REB A100 Reference, rebaudioside A]
[1]
  Bitterness Intensity @ 2 Min (Bitter2): 2
  Numbing/Tingling Sensation @ 2 Min (Numb/Ting2): 2
  Sweetness Intensity @ 2 Min (Sweet2): 3
[2]
  Astringency Intensity (Astring): 0
  Bitterness Intensity (IB): 3
  Mouthfeel (Mfeel): 0
  Numbing/Tingling Sensation (Numb/Ting): 0
  Soapiness (Soap): 1
  Sweetness Intensity Initial (Sweetness): 10
  Sweetness Onset/Appearance Time (Onset): 3
